Reference: PubChem BioAssay (NCI)
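Tested at 5 concentrations; 48 h exposure; 96-well plates; endpoints linearly interpolated, else capped at highest concentration. TGI denotes the concentration required for complete inhibition of growth.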

Tests used:
Assay in all cases: NCI tumour cell line growth inhibition, 48 h
RPMI-8226 leukemia = tested on: RPMI-8226 leukemia
SF-295 CNS = tested on: SF-295 CNS
HS 578T breast = tested on: HS 578T breast
HOP-92 NSCLC = tested on: HOP-92 NSCLC
NCI/ADR-RES ovarian = tested on: NCI/ADR-RES ovarian
SK-MEL-28 melanoma = tested on: SK-MEL-28 melanoma
A498 renal = tested on: A498 renal
SW-620 colon = tested on: SW-620 colon
RXF 393 renal = tested on: RXF 393 renal
OVCAR-4 ovarian = tested on: OVCAR-4 ovarian
PC-3 prostate = tested on: PC-3 prostate
K-562 leukemia = tested on: K-562 leukemia
MOLT-4 leukemia = tested on: MOLT-4 leukemia
OVCAR-3 ovarian = tested on: OVCAR-3 ovarian
EKVX NSCLC = tested on: EKVX NSCLC
786-0 renal = tested on: 786-0 renal
TK-10 renal = tested on: TK-10 renal
U251 CNS = tested on: U251 CNS
SK-OV-3 ovarian = tested on: SK-OV-3 ovarian
COLO 205 colon = tested on: COLO 205 colon
MDA-MB-435 = tested on: MDA-MB-435
HOP-62 NSCLC = tested on: HOP-62 NSCLC
CAKI-1 renal = tested on: CAKI-1 renal
OVCAR-5 ovarian = tested on: OVCAR-5 ovarian
LOX IMVI melanoma = tested on: LOX IMVI melanoma
MALME-3M melanoma = tested on: MALME-3M melanoma
MCF7 breast = tested on: MCF7 breast
MDA-N = tested on: MDA-N
HCT-116 colon = tested on: HCT-116 colon
BT-549 breast = tested on: BT-549 breast
HCT-15 colon = tested on: HCT-15 colon
NCI-H522 lung = tested on: NCI-H522 lung
KM12 colon = tested on: KM12 colon
CCRF-CEM leukemia = tested on: CCRF-CEM leukemia
SK-MEL-5 melanoma = tested on: SK-MEL-5 melanoma
NCI-H23 lung = tested on: NCI-H23 lung
HCC-2998 colon = tested on: HCC-2998 colon
NCI-H226 lung = tested on: NCI-H226 lung
NCI-H460 lung = tested on: NCI-H460 lung
A549 NSCLC = tested on: A549 NSCLC
IGROV1 ovarian = tested on: IGROV1 ovarian
SF-268 CNS = tested on: SF-268 CNS
MDA-MB-231 breast = tested on: MDA-MB-231 breast
SNB-19 CNS = tested on: SNB-19 CNS
M14 melanoma = tested on: M14 melanoma
SF-539 CNS = tested on: SF-539 CNS
OVCAR-8 ovarian = tested on: OVCAR-8 ovarian
UACC-257 melanoma = tested on: UACC-257 melanoma
SN12C renal = tested on: SN12C renal
ACHN renal = tested on: ACHN renal
SK-MEL-2 melanoma = tested on: SK-MEL-2 melanoma
UACC-62 melanoma = tested on: UACC-62 melanoma
DU-145 prostate = tested on: DU-145 prostate
HT29 colon = tested on: HT29 colon
T-47D breast = tested on: T-47D breast
SR leukemia = tested on: SR leukemia
UO-31 renal = tested on: UO-31 renal
SNB-75 CNS = tested on: SNB-75 CNS
HL-60(TB) leukemia = tested on: HL-60(TB) leukemia

## CCn1c(=O)c2cn[nH]c2n(C)c1=O
RPMI-8226 leukemia
  TGI: > 100 µM
SF-295 CNS
  TGI: > 100 µM
HS 578T breast
  TGI: > 100 µM
HOP-92 NSCLC
  TGI: > 100 µM
NCI/ADR-RES ovarian
  TGI: > 100 µM
SK-MEL-28 melanoma
  TGI: > 100 µM
A498 renal
  TGI: > 100 µM
SW-620 colon
  TGI: > 100 µM
RXF 393 renal
  TGI: > 100 µM
OVCAR-4 ovarian
  TGI: > 100 µM
PC-3 prostate
  TGI: > 100 µM
K-562 leukemia
  TGI: > 100 µM
MOLT-4 leukemia
  TGI: > 100 µM
OVCAR-3 ovarian
  TGI: > 100 µM
EKVX NSCLC
  TGI: > 100 µM
786-0 renal
  TGI: > 100 µM
TK-10 renal
  TGI: > 100 µM
U251 CNS
  TGI: > 100 µM
SK-OV-3 ovarian
  TGI: > 100 µM
COLO 205 colon
  TGI: > 100 µM
MDA-MB-435
  TGI: > 100 µM
HOP-62 NSCLC
  TGI: > 100 µM
CAKI-1 renal
  TGI: > 100 µM
OVCAR-5 ovarian
  TGI: > 100 µM
LOX IMVI melanoma
  TGI: > 100 µM
MALME-3M melanoma
  TGI: > 100 µM
MCF7 breast
  TGI: > 100 µM
MDA-N
  TGI: > 100 µM
HCT-116 colon
  TGI: > 100 µM
BT-549 breast
  TGI: > 100 µM
HCT-15 colon
  TGI: > 100 µM
NCI-H522 lung
  TGI: > 100 µM
KM12 colon
  TGI: > 100 µM
CCRF-CEM leukemia
  TGI: > 100 µM
SK-MEL-5 melanoma
  TGI: > 100 µM
NCI-H23 lung
  TGI: > 100 µM
HCC-2998 colon
  TGI: > 100 µM
NCI-H226 lung
  TGI: > 100 µM
NCI-H460 lung
  TGI: > 100 µM
A549 NSCLC
  TGI: > 100 µM
IGROV1 ovarian
  TGI: > 100 µM
SF-268 CNS
  TGI: > 100 µM
MDA-MB-231 breast
  TGI: > 100 µM
SNB-19 CNS
  TGI: > 100 µM
M14 melanoma
  TGI: > 100 µM
SF-539 CNS
  TGI: > 100 µM
OVCAR-8 ovarian
  TGI: > 100 µM
UACC-257 melanoma
  TGI: > 100 µM
SN12C renal
  TGI: > 100 µM
ACHN renal
  TGI: > 100 µM
SK-MEL-2 melanoma
  TGI: > 100 µM
UACC-62 melanoma
  TGI: > 100 µM
DU-145 prostate
  TGI: > 100 µM
HT29 colon
  TGI: > 100 µM
T-47D breast
  TGI: > 100 µM
SR leukemia
  TGI: > 100 µM
UO-31 renal
  TGI: > 100 µM
SNB-75 CNS
  TGI: > 100 µM

## COc1ccc(-c2cc(=O)c3c(O)cc(O)cc3o2)cc1OC
RPMI-8226 leukemia
  TGI: > 100 µM
SF-295 CNS
  TGI: > 100 µM
HS 578T breast
  TGI: > 100 µM
HOP-92 NSCLC
  TGI: 16.4 µM
NCI/ADR-RES ovarian
  TGI: > 100 µM
SK-MEL-28 melanoma
  TGI: > 100 µM
A498 renal
  TGI: 45.2 µM
SW-620 colon
  TGI: > 100 µM
RXF 393 renal
  TGI: > 100 µM
OVCAR-4 ovarian
  TGI: > 100 µM
PC-3 prostate
  TGI: > 100 µM
K-562 leukemia
  TGI: > 100 µM
MOLT-4 leukemia
  TGI: > 100 µM
OVCAR-3 ovarian
  TGI: > 100 µM
EKVX NSCLC
  TGI: > 100 µM
786-0 renal
  TGI: > 100 µM
TK-10 renal
  TGI: > 100 µM
U251 CNS
  TGI: > 100 µM
SK-OV-3 ovarian
  TGI: > 100 µM
COLO 205 colon
  TGI: > 100 µM
MDA-MB-435
  TGI: > 100 µM
HOP-62 NSCLC
  TGI: > 100 µM
OVCAR-5 ovarian
  TGI: > 100 µM
LOX IMVI melanoma
  TGI: > 100 µM
MALME-3M melanoma
  TGI: > 100 µM
MCF7 breast
  TGI: > 100 µM
MDA-N
  TGI: > 100 µM
HCT-116 colon
  TGI: > 100 µM
BT-549 breast
  TGI: > 100 µM
HCT-15 colon
  TGI: > 100 µM
NCI-H522 lung
  TGI: 59.1 µM
KM12 colon
  TGI: > 100 µM
CCRF-CEM leukemia
  TGI: > 100 µM
SK-MEL-5 melanoma
  TGI: > 100 µM
NCI-H23 lung
  TGI: > 100 µM
HCC-2998 colon
  TGI: > 100 µM
NCI-H226 lung
  TGI: > 100 µM
NCI-H460 lung
  TGI: > 100 µM
A549 NSCLC
  TGI: > 100 µM
IGROV1 ovarian
  TGI: > 100 µM
SF-268 CNS
  TGI: > 100 µM
MDA-MB-231 breast
  TGI: > 100 µM
SNB-19 CNS
  TGI: > 100 µM
M14 melanoma
  TGI: > 100 µM
SF-539 CNS
  TGI: > 100 µM
UACC-257 melanoma
  TGI: > 100 µM
SN12C renal
  TGI: > 100 µM
ACHN renal
  TGI: > 100 µM
SK-MEL-2 melanoma
  TGI: > 100 µM
UACC-62 melanoma
  TGI: > 100 µM
DU-145 prostate
  TGI: > 100 µM
HT29 colon
  TGI: > 100 µM
T-47D breast
  TGI: > 100 µM
SR leukemia
  TGI: 33.5 µM
HL-60(TB) leukemia
  TGI: > 100 µM
UO-31 renal
  TGI: > 100 µM
SNB-75 CNS
  TGI: 37.1 µM

## ONCCCn1cnc2c(NC3CC3)ncnc21
RPMI-8226 leukemia
  TGI: > 100 µM
SF-295 CNS
  TGI: > 100 µM
HS 578T breast
  TGI: > 100 µM
HOP-92 NSCLC
  TGI: > 100 µM
NCI/ADR-RES ovarian
  TGI: > 100 µM
SK-MEL-28 melanoma
  TGI: > 100 µM
A498 renal
  TGI: > 100 µM
SW-620 colon
  TGI: > 100 µM
RXF 393 renal
  TGI: > 100 µM
OVCAR-4 ovarian
  TGI: > 100 µM
PC-3 prostate
  TGI: > 100 µM
K-562 leukemia
  TGI: > 100 µM
MOLT-4 leukemia
  TGI: > 100 µM
OVCAR-3 ovarian
  TGI: > 100 µM
EKVX NSCLC
  TGI: > 100 µM
786-0 renal
  TGI: > 100 µM
TK-10 renal
  TGI: > 100 µM
U251 CNS
  TGI: > 100 µM
SK-OV-3 ovarian
  TGI: > 100 µM
COLO 205 colon
  TGI: > 100 µM
MDA-MB-435
  TGI: > 100 µM
HOP-62 NSCLC
  TGI: > 100 µM
CAKI-1 renal
  TGI: > 100 µM
OVCAR-5 ovarian
  TGI: > 100 µM
LOX IMVI melanoma
  TGI: > 100 µM
MALME-3M melanoma
  TGI: > 100 µM
MCF7 breast
  TGI: > 100 µM
MDA-N
  TGI: > 100 µM
HCT-116 colon
  TGI: > 100 µM
BT-549 breast
  TGI: > 100 µM
HCT-15 colon
  TGI: > 100 µM
NCI-H522 lung
  TGI: > 100 µM
KM12 colon
  TGI: > 100 µM
CCRF-CEM leukemia
  TGI: > 100 µM
SK-MEL-5 melanoma
  TGI: > 100 µM
NCI-H23 lung
  TGI: > 100 µM
HCC-2998 colon
  TGI: > 100 µM
NCI-H226 lung
  TGI: > 100 µM
NCI-H460 lung
  TGI: > 100 µM
A549 NSCLC
  TGI: > 100 µM
IGROV1 ovarian
  TGI: > 100 µM
SF-268 CNS
  TGI: > 100 µM
MDA-MB-231 breast
  TGI: > 100 µM
SNB-19 CNS
  TGI: > 100 µM
M14 melanoma
  TGI: > 100 µM
SF-539 CNS
  TGI: > 100 µM
OVCAR-8 ovarian
  TGI: > 100 µM
UACC-257 melanoma
  TGI: > 100 µM
SN12C renal
  TGI: > 100 µM
ACHN renal
  TGI: > 100 µM
SK-MEL-2 melanoma
  TGI: > 100 µM
UACC-62 melanoma
  TGI: > 100 µM
DU-145 prostate
  TGI: > 100 µM
HT29 colon
  TGI: > 100 µM
T-47D breast
  TGI: > 100 µM
SR leukemia
  TGI: > 100 µM
UO-31 renal
  TGI: > 100 µM
SNB-75 CNS
  TGI: > 100 µM
